In ChEMBL document CHEMBL1143624, “1-(5-Chloro-2-alkoxyphenyl)-3-(5-cyanopyrazin-2-yl)ureas [correction of cyanopyrazi] as potent and selective inhibitors of Chk1 kinase: synthesis, preliminary SAR, and biological activities” (J Med Chem, 2005):

How the values were obtained:
[1] = tested on: HeLa; test: Ratio of antiproliferative activities (EC50) against HeLa Cells to that with 150 nM doxorubicin; assay type: functional, Homo sapiens
[2] = tested on: HeLa; test: Anti-proliferative activity against HeLa cells in the presence of 150 nM of doxorubicin; assay type: functional, cell-based; conditions: Homo sapiens
[3] = tested on: HeLa; test: Anti-proliferative activity against HeLa cells; assay type: functional, cell-based; conditions: Homo sapiens
[4] = target: T1, Serine/threonine-protein kinase Chk1 (Homo sapiens, UniProt O14757); test: Inhibition of Serine/threonine-protein kinase Chk1
T1 sequence (O14757 whole entry): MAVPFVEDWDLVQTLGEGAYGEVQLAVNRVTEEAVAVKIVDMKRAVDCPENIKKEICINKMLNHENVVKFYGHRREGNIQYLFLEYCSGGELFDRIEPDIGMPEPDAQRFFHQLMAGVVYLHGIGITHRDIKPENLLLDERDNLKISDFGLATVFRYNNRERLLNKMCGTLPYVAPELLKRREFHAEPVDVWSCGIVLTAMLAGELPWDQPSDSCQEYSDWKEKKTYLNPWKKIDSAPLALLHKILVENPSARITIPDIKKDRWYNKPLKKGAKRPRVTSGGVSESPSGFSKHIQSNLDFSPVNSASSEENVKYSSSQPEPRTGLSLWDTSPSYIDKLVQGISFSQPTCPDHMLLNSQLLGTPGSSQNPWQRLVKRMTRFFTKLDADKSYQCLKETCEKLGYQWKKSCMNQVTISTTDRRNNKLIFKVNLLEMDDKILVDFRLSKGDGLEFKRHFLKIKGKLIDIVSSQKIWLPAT

[5] = target: Cyclin-dependent kinase 1 (Homo sapiens, UniProt P06493); test: Inhibition of Serine/threonine kinase Cdc2 (Cdc2)
Cyclin-dependent kinase 1, sequence (P06493 whole entry): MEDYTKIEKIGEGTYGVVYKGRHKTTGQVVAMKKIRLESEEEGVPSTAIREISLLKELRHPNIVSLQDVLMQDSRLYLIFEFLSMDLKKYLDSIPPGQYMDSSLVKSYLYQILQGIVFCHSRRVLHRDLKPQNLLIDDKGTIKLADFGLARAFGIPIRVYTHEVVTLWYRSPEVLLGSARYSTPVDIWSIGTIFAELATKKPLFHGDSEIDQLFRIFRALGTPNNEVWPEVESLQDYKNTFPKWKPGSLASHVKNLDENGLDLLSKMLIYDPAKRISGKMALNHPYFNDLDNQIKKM

[6] = target: Protein kinase C delta type (Homo sapiens, UniProt Q05655); test: Inhibition of Protein kinase C delta (PKCdelta)
Protein kinase C delta type, sequence (Q05655 whole entry): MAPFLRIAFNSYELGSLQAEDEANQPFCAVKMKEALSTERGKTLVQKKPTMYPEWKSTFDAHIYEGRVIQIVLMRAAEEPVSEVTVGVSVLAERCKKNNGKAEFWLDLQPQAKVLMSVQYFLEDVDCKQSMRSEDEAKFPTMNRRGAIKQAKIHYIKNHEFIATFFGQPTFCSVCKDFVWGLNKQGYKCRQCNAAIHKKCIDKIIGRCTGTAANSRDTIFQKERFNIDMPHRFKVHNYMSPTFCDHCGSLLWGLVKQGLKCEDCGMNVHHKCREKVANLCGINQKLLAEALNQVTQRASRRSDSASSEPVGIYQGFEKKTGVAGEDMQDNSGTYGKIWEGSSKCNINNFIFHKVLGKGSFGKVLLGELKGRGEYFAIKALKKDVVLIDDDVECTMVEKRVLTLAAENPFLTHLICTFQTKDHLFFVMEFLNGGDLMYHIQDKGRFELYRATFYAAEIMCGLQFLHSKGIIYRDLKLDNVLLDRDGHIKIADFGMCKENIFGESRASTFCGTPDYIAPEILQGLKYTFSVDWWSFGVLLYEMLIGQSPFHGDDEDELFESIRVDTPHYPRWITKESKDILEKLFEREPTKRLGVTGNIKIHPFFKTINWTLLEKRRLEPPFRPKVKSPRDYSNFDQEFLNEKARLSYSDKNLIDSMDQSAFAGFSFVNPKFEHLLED

[7] = target: RAC-alpha serine/threonine-protein kinase (Homo sapiens, UniProt P31749); test: Inhibition of Protein kinase B, alpha (Akt1)
RAC-alpha serine/threonine-protein kinase, sequence (P31749 whole entry): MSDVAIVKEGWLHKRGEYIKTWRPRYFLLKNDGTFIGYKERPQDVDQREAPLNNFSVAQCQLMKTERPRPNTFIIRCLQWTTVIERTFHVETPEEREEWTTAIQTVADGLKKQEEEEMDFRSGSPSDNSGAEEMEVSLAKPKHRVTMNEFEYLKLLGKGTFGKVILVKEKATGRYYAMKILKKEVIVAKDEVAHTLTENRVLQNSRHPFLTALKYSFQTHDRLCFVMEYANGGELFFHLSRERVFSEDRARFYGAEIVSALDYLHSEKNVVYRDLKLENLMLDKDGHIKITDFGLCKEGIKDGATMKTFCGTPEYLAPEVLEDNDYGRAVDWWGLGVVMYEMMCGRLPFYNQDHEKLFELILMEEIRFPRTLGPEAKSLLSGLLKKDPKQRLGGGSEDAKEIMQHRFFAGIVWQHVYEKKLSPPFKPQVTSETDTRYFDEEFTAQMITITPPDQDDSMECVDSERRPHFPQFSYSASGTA

[8] = target: Serine/threonine-protein kinase Chk2 (Homo sapiens, UniProt O96017); test: Inhibition of Serine/threonine-protein kinase Chk2
Serine/threonine-protein kinase Chk2, sequence (O96017 whole entry): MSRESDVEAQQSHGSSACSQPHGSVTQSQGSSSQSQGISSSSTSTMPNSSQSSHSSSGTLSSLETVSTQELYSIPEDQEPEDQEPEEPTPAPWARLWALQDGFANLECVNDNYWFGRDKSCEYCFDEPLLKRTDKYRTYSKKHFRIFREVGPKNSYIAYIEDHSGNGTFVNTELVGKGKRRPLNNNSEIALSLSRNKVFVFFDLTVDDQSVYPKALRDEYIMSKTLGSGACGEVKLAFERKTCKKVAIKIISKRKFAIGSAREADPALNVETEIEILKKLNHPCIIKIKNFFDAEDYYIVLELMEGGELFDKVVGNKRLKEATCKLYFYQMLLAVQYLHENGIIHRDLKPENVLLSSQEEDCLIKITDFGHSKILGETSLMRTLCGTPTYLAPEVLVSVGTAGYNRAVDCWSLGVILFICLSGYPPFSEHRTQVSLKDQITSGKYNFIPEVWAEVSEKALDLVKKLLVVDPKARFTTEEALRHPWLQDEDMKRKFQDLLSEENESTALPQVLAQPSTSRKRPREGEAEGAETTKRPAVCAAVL

[9] = target: Mitogen-activated protein kinase 1 (Homo sapiens, UniProt P28482); test: Inhibition of Extracellular signal-regulated kinase 2 (ERK2)
Mitogen-activated protein kinase 1, sequence (P28482 whole entry): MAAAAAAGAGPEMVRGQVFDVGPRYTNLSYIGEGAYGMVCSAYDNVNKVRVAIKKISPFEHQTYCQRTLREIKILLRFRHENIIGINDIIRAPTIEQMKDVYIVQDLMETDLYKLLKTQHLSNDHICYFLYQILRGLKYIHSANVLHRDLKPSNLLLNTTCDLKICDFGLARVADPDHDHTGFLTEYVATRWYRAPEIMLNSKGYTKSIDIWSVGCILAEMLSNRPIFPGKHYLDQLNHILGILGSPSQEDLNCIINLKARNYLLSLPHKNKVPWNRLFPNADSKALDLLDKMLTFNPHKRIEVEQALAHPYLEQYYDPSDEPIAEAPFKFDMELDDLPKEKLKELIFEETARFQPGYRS

[10] = Inhibition of Protein kinase A (PKA)
[11] = target: MAP/microtubule affinity-regulating kinase 3 (Homo sapiens, UniProt P27448); test: Inhibition of MAP/microtubule affinity-regulating kinase 3 (cTak1)
MAP/microtubule affinity-regulating kinase 3, sequence (P27448 whole entry): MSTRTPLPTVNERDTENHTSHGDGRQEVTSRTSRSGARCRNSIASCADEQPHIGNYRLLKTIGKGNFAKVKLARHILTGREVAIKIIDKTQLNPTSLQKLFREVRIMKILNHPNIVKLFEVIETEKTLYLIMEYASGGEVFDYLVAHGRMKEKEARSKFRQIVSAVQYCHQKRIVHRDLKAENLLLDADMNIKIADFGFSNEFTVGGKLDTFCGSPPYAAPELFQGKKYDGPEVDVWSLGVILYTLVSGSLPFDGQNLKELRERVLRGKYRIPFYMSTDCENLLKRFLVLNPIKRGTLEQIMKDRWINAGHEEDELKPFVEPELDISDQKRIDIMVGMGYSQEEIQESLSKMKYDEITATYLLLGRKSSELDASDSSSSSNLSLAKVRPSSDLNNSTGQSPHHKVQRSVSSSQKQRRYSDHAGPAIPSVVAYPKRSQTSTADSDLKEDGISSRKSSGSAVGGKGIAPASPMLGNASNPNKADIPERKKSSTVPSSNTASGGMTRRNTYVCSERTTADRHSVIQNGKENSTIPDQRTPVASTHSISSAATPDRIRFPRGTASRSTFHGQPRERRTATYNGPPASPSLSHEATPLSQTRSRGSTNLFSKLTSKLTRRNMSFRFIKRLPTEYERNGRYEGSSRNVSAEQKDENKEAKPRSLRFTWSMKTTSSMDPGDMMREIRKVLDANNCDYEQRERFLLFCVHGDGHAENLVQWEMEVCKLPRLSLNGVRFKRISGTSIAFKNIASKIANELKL

[12] = Inhibition of Protein kinase C gamma (PKCgamma)
[13] = target: T2, Serine/threonine-protein kinase Sgk1 (Homo sapiens, UniProt O00141); test: Inhibition of Serum/glucocorticoid regulated kinase (SGK)
T2 sequence (O00141 whole entry): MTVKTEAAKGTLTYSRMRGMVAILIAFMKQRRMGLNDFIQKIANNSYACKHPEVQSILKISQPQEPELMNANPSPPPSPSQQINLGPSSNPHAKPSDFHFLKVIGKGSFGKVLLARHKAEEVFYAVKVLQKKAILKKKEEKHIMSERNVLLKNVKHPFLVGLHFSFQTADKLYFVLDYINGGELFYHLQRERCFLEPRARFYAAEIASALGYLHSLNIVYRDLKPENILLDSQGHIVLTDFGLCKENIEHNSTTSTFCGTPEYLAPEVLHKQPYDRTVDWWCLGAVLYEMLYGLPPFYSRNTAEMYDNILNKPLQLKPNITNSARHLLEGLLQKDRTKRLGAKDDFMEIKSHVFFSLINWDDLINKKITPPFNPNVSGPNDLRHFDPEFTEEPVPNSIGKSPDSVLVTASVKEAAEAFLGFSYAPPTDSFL

[14] = target: T3, Aurora kinase A (Homo sapiens, UniProt O14965); test: Inhibition of Aurora kinase A (Aur1)
T3 sequence (O14965 whole entry): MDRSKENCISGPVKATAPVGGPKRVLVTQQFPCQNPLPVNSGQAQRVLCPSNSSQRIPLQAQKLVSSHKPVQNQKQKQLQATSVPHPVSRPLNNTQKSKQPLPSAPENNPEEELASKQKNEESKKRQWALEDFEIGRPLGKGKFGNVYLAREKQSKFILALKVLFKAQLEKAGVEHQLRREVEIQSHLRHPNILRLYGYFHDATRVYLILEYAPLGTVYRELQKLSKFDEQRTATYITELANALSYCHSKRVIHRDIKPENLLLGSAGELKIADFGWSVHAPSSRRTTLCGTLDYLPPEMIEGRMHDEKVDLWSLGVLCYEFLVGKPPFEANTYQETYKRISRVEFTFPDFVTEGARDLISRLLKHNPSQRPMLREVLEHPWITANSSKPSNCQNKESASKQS

[15] = tested on: SW-620; test: Concentration required to inhibit growth of SW620 (human colon cancer) cells in the presence of 10 uM of Compound 2e; assay type: functional, cell-based
[16] = tested on: SW-620; test: Concentration required to inhibit growth of SW620 (human colon cancer) cells; assay type: functional, cell-based

For N#Cc1cnc(NC(=O)Nc2cc(Cl)ccc2OC2CCOCC2)cn1, the Ratio [1] was over 1, the EC50 [2] was 37 µM and the EC50 [3] was over 59 µM. The IC50 [4] was 0.005 µM.
Work on CC(CN(C)C)Oc1ccc(Cl)cc1NC(=O)Nc1cnc(C#N)cn1 (stereo unspecified) yielded an IC50 [5] of over 50 µM, an IC50 [6] of 50 µM and a Ratio [1] of 3.7. It also gave an IC50 [7] of over 50 µM, an IC50 [8] of 2.8 µM and an EC50 [2] of 0.4 µM. The EC50 [3] was 1.5 µM, the IC50 [4] was 0.008 µM and the IC50 [9] was over 50 µM. It also gave an IC50 [10] of over 50 µM, an IC50 [11] of 1.51 µM and an IC50 [12] of 50 µM. It also gave an IC50 [13] of over 50 µM and an IC50 [14] of 3.23 µM.
For CC[C@@]1(O)C(=O)OCc2c1cc1n(c2=O)Cc2cc3ccccc3nc2-1 [CAMPTOTHECIN], the EC50 [15] was 0.00015 µM and the EC50 [16] was 0.0012 µM.
N#Cc1cnc(NC(=O)Nc2cc(Cl)ccc2OC2CCOC2)cn1 (stereo unspecified) showed a Ratio [1] of 3.6, an EC50 [2] of 5 µM and an EC50 [3] of 18.7 µM. It also gave an IC50 [4] of 0.003 µM.
Work on CN1CCC(Oc2ccc(Cl)cc2NC(=O)Nc2cnc(C#N)cn2)CC1 yielded a Ratio [1] of 1, an EC50 [2] of 10 µM and an EC50 [3] of 10.4 µM. For the same compound, the IC50 [4] was 0.01 µM.
Compound CC1(COc2ccc(Cl)cc2NC(=O)Nc2cnc(C#N)cn2)COC1 has an IC50 [5] of over 50 µM, an IC50 [6] of over 50 µM and a Ratio [1] of over 22. For the same compound, the IC50 [7] was 9.21 µM, the EC50 [2] was 2.6 µM and the EC50 [3] was over 59 µM. It also gave an IC50 [4] of 0.007 µM, an IC50 [9] of over 50 µM and an IC50 [10] of over 50 µM. For the same compound, the IC50 [11] was over 10 µM, the IC50 [12] was over 50 µM and the IC50 [13] was over 50 µM. The IC50 [14] was over 10 µM.
